Measurements published in PubChem BioAssay AID1918936 (Molecular Pharmacology Branch, DTP, NCI, 2023).
pIC50: −log10 of the molar value.

System: 349418-098-R-PDC complex spheroid viability
Assay: Anticancer human tumor 349418-098-R-PDC patient-derived lung adenocarcinoma cell line growth inhibition
Conditions: for pIC50: curve of first compound; for viability, T/C: stronger effect = lower value
Source text: Multicellular complex tumor spheroid response to LSD1 Inhibitor Iadademstat in combination with a variety of drugs and investigational agents in selected tumor cell lines
The current study was undertaken to assess response to LSD1 inhibitors in combination with standard-of-care drugs and investigational agents in solid tumor complex spheroid models as well as in the K-562 leukemia. Complex spheroids include a stromal component modeled by human endothelial cells (HUVEC) and fibroblasts modeled by human mesenchymal stem cells (MSCs). The concentration ranges selected for each drug and investigational agent were based upon clinically achievable concentrations if the clinical Cmax of the agent was known.
Compounds. The drugs and investigational agents used in this study are listed on Table 1. All of the agents used, including staurosporine (NSC755774) and gemcitabine (NSC613327), were obtained from the Developmental Therapeutics Program, NCI. FDA-approved anticancer drugs are available from the NCI at http://dtp.nci.nih.gov/branches/dscb/oncology_drugset_explanation.html. Drugs and investigational agents were >95% pure by proton nuclear magnetic resonance (NMR) and liquid chromatography/mass spectrometry (LC/MS). Stock solutions were prepared at 400x in DMSO, stored at -70 degrees C, and diluted in fresh medium prior to their use. The final concentration of DMSO in cell culture wells never exceeded 0.25% (v/v). The FDA-approved anticancer drug set is available from the Developmental Therapeutics Program at https://dtp.cancer.gov/organization/dscb/obtaining/available_plates.htm. All drugs and investigational agents were tested over a range starting from a high concentration at or near the clinical Cmax and decreasing in half-log increments. If the clinical Cmax for an agent had not been determined, the highest concentration tested was 10 microM.
Cell Lines. The patient-derived cancer cell (PDC) lines: 292921-168-R-J2-PDC, K24384-001-R-PDC, and 521955-158-R2-J5-PDC pancreatic carcinomas, 556581-035-R-J1 ovarian carcinoma, 324938-238-R-J1-PDC, 855422-203-R-J1-PDC and 883617-216-R-J1-PDC urothelial bladder carcinomas, 743489-274-T-PDC renal cell carcinoma, 138582-R-J1 Merkel cell tumor, K60290-347-R-J1 and K57222-313-R-J1-PDC glioblastomas, 653999-131-R-J2-PDC, LG0703-F948-PDC, and 349418-098-R-PDC non-small cell lung carcinomas, 885512-296-R-J2-PDC, 171881-019-R-J1-PDC breast carcinomas and 186277-243-T-J2-PDC and 233499-124-R-J2-PDC colon carcinomas were obtained from the NCI Patient-Derived Models Repository (PDMR, https://pdmr.cancer.gov). The established cell lines NCI/ADR-RES (RRID:CVCL_14520 and OVCAR-5 (RRID:CVCL_1628) ovarian carcinomas, 786-O (RRID:CVCL_1051) and A498 (RRID:CVCL_A498) renal cell carcinoma, NCI-H211 (ATCC, cat. CRL-5824; RRID:CVCL_1529), NCI-H196 (ATCC, cat. CRL-5823, RRID:CVCL_1509), SW 1271 (ATCC, cat. CRL-2177, RRID:CVCL_1716) and NCI-H1876 (ATCC, cat. CRL-5902, RRID:CVCL_1503) small cell lung carcinomas, MDA-MB-231 (RRID:CVCL_0062) and MDA-MB-468 (RRID:CVCL_0419)breast carcinomas (10-12). Pooled donor human umbilical vein endothelial cells (HUVEC, Lonza, cat. CC-2519) and human mesenchymal stem cells (hMSC, Lonza, cat. PT-2501) were purchased from Lonza (Walkersville, MD).
Cell Culture. All cells were maintained in an incubator at 37 degrees C and 5% CO2 with 95% humidity. The PDC lines were cultured according to standard operating procedures established by the NCI PDMR (https://pdmr.cancer.gov). Briefly all PDCs were thawed and cultured in Matrigel-coated flasks prepared with a working solution of 1X Ham's F-12 nutrient mix, without supplementation (Invitrogen, Waltham, MA, cat. 11765054), 100 U/mL penicillin-streptomycin (Invitrogen, cat. 15140122), and 2.5% Matrigel (Corning Inc., Corning, NY, cat. 354248) for the first three passages. […]
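Note: spheroids exposed to agents for seven days before readout.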
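Throughout, for viability, T/C: 100% = DMSO vehicle control wells.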

## COc1cc(C2c3cc4c(cc3C(OC3OC5COC(C)OC5C(O)C3O)C3COC(=O)C23)OCO4)cc(OC)c1O (stereo not given) + NC1CC1c1ccc(-c2cccc(O)c2)cc1
Second compound 0.1 µM
  pIC50: 7.21
Second compound 0.316 µM
  pIC50: 7.20
Second compound 1 µM
  pIC50: 7.17
Second compound 3.16 µM
  pIC50: 7.24
Second compound 10 µM
  pIC50: 7.46
Second compound 0.1 µM, first compound 0.00949 µM
  viability, T/C: 108%
Second compound 0.1 µM, first compound 0.03 µM
  viability, T/C: 86.4%
Second compound 0.1 µM, first compound 0.0949 µM
  viability, T/C: 27.3%
Second compound 0.1 µM, first compound 0.3 µM
  viability, T/C: 7.24%
Second compound 0.1 µM, first compound 0.949 µM
  viability, T/C: 3.83%
Second compound 0.1 µM, first compound 3 µM
  viability, T/C: 3.5%
Second compound 0.316 µM, first compound 0.00949 µM
  viability, T/C: 114%
Second compound 0.316 µM, first compound 0.03 µM
  viability, T/C: 89.4%
Second compound 0.316 µM, first compound 0.0949 µM
  viability, T/C: 27.7%
Second compound 0.316 µM, first compound 0.3 µM
  viability, T/C: 7.71%
Second compound 0.316 µM, first compound 0.949 µM
  viability, T/C: 3.95%
Second compound 0.316 µM, first compound 3 µM
  viability, T/C: 2.97%
Second compound 1 µM, first compound 0.00949 µM
  viability, T/C: 97.6%
Second compound 1 µM, first compound 0.03 µM
  viability, T/C: 92.7%
Second compound 1 µM, first compound 0.0949 µM
  viability, T/C: 31.8%
Second compound 1 µM, first compound 0.3 µM
  viability, T/C: 6.96%
Second compound 1 µM, first compound 0.949 µM
  viability, T/C: 3.37%
Second compound 1 µM, first compound 3 µM
  viability, T/C: 2.89%
Second compound 3.16 µM, first compound 0.00949 µM
  viability, T/C: 114%
Second compound 3.16 µM, first compound 0.03 µM
  viability, T/C: 83.5%
Second compound 3.16 µM, first compound 0.0949 µM
  viability, T/C: 23.5%
Second compound 3.16 µM, first compound 0.3 µM
  viability, T/C: 7.14%
Second compound 3.16 µM, first compound 0.949 µM
  viability, T/C: 3.98%
Second compound 3.16 µM, first compound 3 µM
  viability, T/C: 3.63%
Second compound 10 µM, first compound 0.00949 µM
  viability, T/C: 95.6%
Second compound 10 µM, first compound 0.03 µM
  viability, T/C: 55.4%
Second compound 10 µM, first compound 0.0949 µM
  viability, T/C: 14.7%
Second compound 10 µM, first compound 0.3 µM
  viability, T/C: 5.55%
Second compound 10 µM, first compound 0.949 µM
  viability, T/C: 3.81%
Second compound 10 µM, first compound 3 µM
  viability, T/C: 3.47%

## Nc1ncn(C2CC(O)C(CO)O2)c(=O)n1 (stereo not given) + NC1CC1c1ccc(-c2cccc(O)c2)cc1
Second compound 0.1 µM
  pIC50: 7.05
Second compound 0.316 µM
  pIC50: 7.04
Second compound 1 µM
  pIC50: 7.05
Second compound 3.16 µM
  pIC50: 7.02
Second compound 10 µM
  pIC50: 7.20
Second compound 0.1 µM, first compound 0.00316 µM
  viability, T/C: 102%
Second compound 0.1 µM, first compound 0.01 µM
  viability, T/C: 99.1%
Second compound 0.1 µM, first compound 0.0316 µM
  viability, T/C: 78.3%
Second compound 0.1 µM, first compound 0.1 µM
  viability, T/C: 45.8%
Second compound 0.1 µM, first compound 0.316 µM
  viability, T/C: 37.3%
Second compound 0.1 µM, first compound 1 µM
  viability, T/C: 28.2%
Second compound 0.316 µM, first compound 0.00316 µM
  viability, T/C: 113%
Second compound 0.316 µM, first compound 0.01 µM
  viability, T/C: 95%
Second compound 0.316 µM, first compound 0.0316 µM
  viability, T/C: 88.4%
Second compound 0.316 µM, first compound 0.1 µM
  viability, T/C: 44.2%
Second compound 0.316 µM, first compound 0.316 µM
  viability, T/C: 32.9%
Second compound 0.316 µM, first compound 1 µM
  viability, T/C: 27.9%
Second compound 1 µM, first compound 0.00316 µM
  viability, T/C: 105%
Second compound 1 µM, first compound 0.01 µM
  viability, T/C: 105%
Second compound 1 µM, first compound 0.0316 µM
  viability, T/C: 83.4%
Second compound 1 µM, first compound 0.1 µM
  viability, T/C: 45.8%
Second compound 1 µM, first compound 0.316 µM
  viability, T/C: 32.5%
Second compound 1 µM, first compound 1 µM
  viability, T/C: 27.1%
Second compound 3.16 µM, first compound 0.00316 µM
  viability, T/C: 111%
Second compound 3.16 µM, first compound 0.01 µM
  viability, T/C: 108%
Second compound 3.16 µM, first compound 0.0316 µM
  viability, T/C: 85.5%
Second compound 3.16 µM, first compound 0.1 µM
  viability, T/C: 48.4%
Second compound 3.16 µM, first compound 0.316 µM
  viability, T/C: 30.6%
Second compound 3.16 µM, first compound 1 µM
  viability, T/C: 25.1%
Second compound 10 µM, first compound 0.00316 µM
  viability, T/C: 92.4%
Second compound 10 µM, first compound 0.01 µM
  viability, T/C: 78.3%
Second compound 10 µM, first compound 0.0316 µM
  viability, T/C: 67.8%
Second compound 10 µM, first compound 0.1 µM
  viability, T/C: 38.3%
Second compound 10 µM, first compound 0.316 µM
  viability, T/C: 28%
Second compound 10 µM, first compound 1 µM
  viability, T/C: 26.7%
